Experimental data as given in ChEMBL document CHEMBL4665679, “Ocular Disease Therapeutics: Design and Delivery of Drugs for Diseases of the Eye” (J Med Chem, 2020).
Converted amounts (≈) assume the structure as drawn. One block for each molecule: values may come before it.

Key:
[1] = Equilibrium solubility in pH 6.8 potassium phosphate buffer incubated for 16 hrs by shake flask method; type: physicochemical
Complement C5 = Complement C5 (Homo sapiens, UniProt P01031); test: Inhibition of C5 complement protein in 2% human serum incubated for 15 mins; type: cell-free
[2] = Reduction of intraocular pressure in human at 0.1% administered topically to the eye and measured at 4 hr post-instillation during phase 1 clinical trial by tonometry; type: functional
[3] = Reduction of intraocular pressure in human at 0.1%, OU administered twice daily for 8 weeks and measured every 4 weeks at 8 hrs post instillation during phase 2 clinical trial by tonometry; type: functional
[4] = Reduction of intraocular pressure in human at 0.4%, OU administered twice daily for 8 weeks cotreated with timolol and measured every 2 weeks at 2 hrs post-instillation by tonometry; type: functional
[5] = Reduction of intraocular pressure in human at 0.4%, OU administered twice daily for 8 weeks cotreated-with-latanoprost and measured every 2 weeks at 2 hrs post-instillation by tonometry; type: functional
[6] = Reduction of intraocular pressure in human at 0.4%, OU administered twice daily for 8 weeks cotreated with timolol and measured every 2 weeks by tonometry; type: functional
[7] = Reduction of intraocular pressure in human at 0.4%, OU administered twice daily for 52 weeks and measured every 2 weeks for first month and then every 4 weeks at 2 hr post-instillation by tonometry; type: functional
[8] = Reduction of intraocular pressure in human at 0.2%, OU administered twice daily for 8 weeks and measured every 4 weeks at 8 hrs post instillation during phase 2 clinical trial by tonometry; type: functional
[9] = Reduction of intraocular pressure in human at 0.4%, OU administered twice daily for 52 weeks and measured every 2 weeks for first month and then every 4 weeks by tonometry; type: functional
[10] = Reduction of intraocular pressure in human at 0.4%, OU administered twice daily for 8 weeks and measured every 4 weeks at 8 hrs post instillation during phase 2 clinical trial by tonometry; type: functional
Complement factor D [11] = molecular target: T1, Complement factor D (Homo sapiens, UniProt P00746); test: Inhibition of CFD in 50% human whole blood assessed as reduction in alternate complement pathway-mediated MAC formation pre-incubated for 15 mins followed by zymosan suspension addition and measured after 40 mins by ELISA; type: tissue-based
[12] = Solubility of compound by NMR analysis; type: physicochemical
[13] = Inhibition of N-terminal His-tagged human KLK7 (37 to 253 residues) Y180R mutant expressed in Escherichia coli BL21(DE3) using Ac-Glu-Phe-Lys-Pro-Ile-Leu-Trp-Arg-Leu-Gly-Cys(PT14)-Glu-NH2 as substrate preincubated for 1 hr followed by substrate addition by fluorescence-lifetime assay
Complement factor D [14] = molecular target: T1, Complement factor D; test: Binding affinity to human CFD at 100 uM by WaterLOGSY NMR analysis
[15] = Half life in cynomolgus monkey cornea by HPLC analysis; type: ADME, tissue-based, Macaca fascicularis; conditions: in vivo
[16] = Half life in human cornea by HPLC analysis; type: ADME, tissue-based
[17] = Half life in Dutch Belted rabbit cornea by HPLC analysis; type: ADME, tissue-based, Oryctolagus cuniculus; conditions: in vivo
[18] = Half life in pig cornea by HPLC analysis; type: ADME, tissue-based, Sus scrofa; conditions: in vivo
[19] = Half life in Beagle dog cornea by HPLC analysis; type: ADME, tissue-based, Canis lupus familiaris; conditions: in vivo
Complement factor D [20] = molecular target: T1, Complement factor D; test: Inhibition of recombinant human CFD catalytic domain (G24 to A253 residues) expressed in Escherichia coli (Rosetta) using Z-Lys-thiobenzyl and 2,4-dinitrobenzenesulfonyl-2,7-[…]-fluorecein as substrate preincubated for 1 hr followed by substrate addition by spectrofluorimetric method
Complement factor D [21] = molecular target: T1, Complement factor D; test: Inhibition of CFD in human RBC model of anti-CD55/anti-CD59-induced paroxysmal nocturnal hemoglobinuria assessed as reduction in complement fragment C3 deposition by FACS analysis; type: tissue-based
[22] = molecular target: T2, Nitric oxide synthase, inducible (Mus musculus, UniProt P29477); test: Inhibition of LPS/IFN-gamma induced NO-dependent iNOS activity in mouse RAW 264.7 cells incubated for 16 hrs by Griess reagent based assay; type: cell-based, RAW264.7
T2 sequence (P29477 whole entry): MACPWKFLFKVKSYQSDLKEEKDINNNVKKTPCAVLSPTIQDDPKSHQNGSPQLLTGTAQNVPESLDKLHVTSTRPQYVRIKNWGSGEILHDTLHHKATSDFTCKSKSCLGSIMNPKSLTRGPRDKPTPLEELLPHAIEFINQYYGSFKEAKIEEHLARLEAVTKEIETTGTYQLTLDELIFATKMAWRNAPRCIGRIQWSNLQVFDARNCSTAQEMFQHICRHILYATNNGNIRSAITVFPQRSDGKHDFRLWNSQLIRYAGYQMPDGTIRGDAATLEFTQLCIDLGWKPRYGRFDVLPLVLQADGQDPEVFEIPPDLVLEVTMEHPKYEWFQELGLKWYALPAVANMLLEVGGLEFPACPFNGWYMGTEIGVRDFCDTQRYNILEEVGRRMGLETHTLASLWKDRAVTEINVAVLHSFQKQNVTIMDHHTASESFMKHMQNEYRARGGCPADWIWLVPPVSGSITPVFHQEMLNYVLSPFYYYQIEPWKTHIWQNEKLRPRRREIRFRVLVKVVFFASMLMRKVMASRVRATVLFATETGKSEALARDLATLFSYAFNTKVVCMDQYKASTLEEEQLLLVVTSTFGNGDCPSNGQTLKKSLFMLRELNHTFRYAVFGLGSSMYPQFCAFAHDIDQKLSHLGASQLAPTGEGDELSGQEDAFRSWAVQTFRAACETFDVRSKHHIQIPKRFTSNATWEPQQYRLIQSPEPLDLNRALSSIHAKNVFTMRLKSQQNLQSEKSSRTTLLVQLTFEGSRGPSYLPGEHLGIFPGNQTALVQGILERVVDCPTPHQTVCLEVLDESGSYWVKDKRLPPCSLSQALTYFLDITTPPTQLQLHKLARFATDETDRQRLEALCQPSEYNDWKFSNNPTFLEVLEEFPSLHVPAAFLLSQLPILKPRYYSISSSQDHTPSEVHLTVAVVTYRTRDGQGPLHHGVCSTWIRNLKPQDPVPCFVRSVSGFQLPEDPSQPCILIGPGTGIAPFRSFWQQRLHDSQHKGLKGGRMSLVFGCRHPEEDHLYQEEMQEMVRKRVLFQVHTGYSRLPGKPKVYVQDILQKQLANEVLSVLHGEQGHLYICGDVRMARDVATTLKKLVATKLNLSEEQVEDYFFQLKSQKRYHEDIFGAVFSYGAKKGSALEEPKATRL

[23] = Reduction of intraocular pressure in human at 0.024% administered topically to eye once daily for 4 weeks and measured for 8 hrs during nocturnal/sleep period by tonometry; type: functional
[24] = Reduction of intraocular pressure in human at 0.024%, OU administered once daily for 14 days and measured for 24 hrs on day 14 by tonometry; type: functional; conditions: time 14 day
[25] = Reduction of intraocular pressure in human at 0.024%, OU administered once daily and measured at 4 pm time point after 3 months by tonometry; type: functional; conditions: 2190 h
[26] = Reduction of intraocular pressure in human at 0.024%, OU administered once daily and measured at 12 pm time point after 2 weeks by tonometry; type: functional
[27] = Reduction of intraocular pressure in human at 0.024%, OU administered once daily and measured at 8 am time point after 3 months by tonometry; type: functional; conditions: 2190 h
[28] = Reduction of intraocular pressure in human at 0.024%, OU administered once daily and measured at 12 pm time point after 3 months by tonometry; type: functional; conditions: 2190 h
[29] = Reduction of intraocular pressure in human at 0.024%, OU administered once daily and measured at 8 am time point after 6 weeks by tonometry; type: functional
[30] = Reduction of intraocular pressure in human at 0.024%, OU administered once daily and measured at 4 pm time point after 2 weeks by tonometry; type: functional
[31] = Reduction of intraocular pressure in human at 0.024% administered topically to eye once daily and measured after 28 day during phase2 clinical trial by tonometry; type: functional
[32] = Reduction of intraocular pressure in human at 0.024%, OU administered once daily and measured at 12 pm time point after 6 weeks by tonometry; type: functional
[33] = Reduction of intraocular pressure in human at 0.024% administered topically to eye once daily and measured after 7 day during phase2 clinical trial by tonometry; type: functional
[34] = Reduction of intraocular pressure in human at 0.024% administered topically to eye once daily for 4 weeks and measured for 8 hrs during diurnal/wake period by tonometry; type: functional
[35] = Reduction of intraocular pressure in human at 0.024%, OU administered to fellow-eye once daily for 14 days and measured for 24 hrs on day 14 by tonometry; type: functional; conditions: time 14 day
[36] = Reduction of intraocular pressure in human at 0.024% administered topically to eye once daily and measured after 14 day during phase2 clinical trial by tonometry; type: functional
[37] = Reduction of intraocular pressure in human at 0.024%, OU administered once daily and measured at 4 weeks by tonometry; type: functional
[38] = Reduction of intraocular pressure in human at 0.024%, OU administered once daily and measured at 8 am time point after 2 weeks by tonometry; type: functional
[39] = Reduction of intraocular pressure in human at 0.024%, OU administered once daily and measured at 4 pm time point after 6 weeks by tonometry; type: functional
[40] = Reduction of intraocular pressure in human at 0.024%, OU administered once daily and measured at 1 year by tonometry; type: functional; conditions: 8760 h
Rattus norvegicus [41] = test: Neuroprotective activity in Wistar rat model of streptozotocin-induced diabetic retinopathy assessed as decrease in retinal ganglion cells at 5 mg/kg, po dosed until 2 months starting 7 days prior to streptozotocin injection (reference value: 44%); type: functional; parameters: scale not given: the % may be the effect or the level left; conditions: 1460 h
Rattus norvegicus [42] = test: Neuroprotective activity in Wistar rat model of streptozotocin-induced diabetic retinopathy assessed as decrease in retinal ganglion cells at 1 mg/kg, po dosed until 2 months starting 7 days prior to streptozotocin injection (reference value: 44%); type: functional; parameters: scale not given: the % may be the effect or the level left; conditions: 1460 h

Complement C5, sequence (P01031 19-673 limits assumed): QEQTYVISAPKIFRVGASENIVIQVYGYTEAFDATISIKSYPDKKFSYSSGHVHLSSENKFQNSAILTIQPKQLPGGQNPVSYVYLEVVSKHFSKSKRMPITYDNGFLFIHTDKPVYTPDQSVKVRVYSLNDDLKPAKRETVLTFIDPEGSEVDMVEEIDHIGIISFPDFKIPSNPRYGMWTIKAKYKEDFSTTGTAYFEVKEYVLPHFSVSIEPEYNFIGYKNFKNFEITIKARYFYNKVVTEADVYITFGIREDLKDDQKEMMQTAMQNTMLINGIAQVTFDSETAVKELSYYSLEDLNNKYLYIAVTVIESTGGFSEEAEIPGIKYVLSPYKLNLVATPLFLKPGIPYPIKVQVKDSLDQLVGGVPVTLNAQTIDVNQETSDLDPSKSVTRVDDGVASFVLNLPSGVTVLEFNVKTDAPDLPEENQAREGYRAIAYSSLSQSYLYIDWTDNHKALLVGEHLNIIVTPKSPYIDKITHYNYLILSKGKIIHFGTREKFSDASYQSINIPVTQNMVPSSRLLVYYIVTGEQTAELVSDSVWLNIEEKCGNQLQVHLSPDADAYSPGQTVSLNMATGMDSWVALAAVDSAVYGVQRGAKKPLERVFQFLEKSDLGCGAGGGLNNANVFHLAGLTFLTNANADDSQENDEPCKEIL
Complement C5, sequence (P01031 678-1676 limits assumed): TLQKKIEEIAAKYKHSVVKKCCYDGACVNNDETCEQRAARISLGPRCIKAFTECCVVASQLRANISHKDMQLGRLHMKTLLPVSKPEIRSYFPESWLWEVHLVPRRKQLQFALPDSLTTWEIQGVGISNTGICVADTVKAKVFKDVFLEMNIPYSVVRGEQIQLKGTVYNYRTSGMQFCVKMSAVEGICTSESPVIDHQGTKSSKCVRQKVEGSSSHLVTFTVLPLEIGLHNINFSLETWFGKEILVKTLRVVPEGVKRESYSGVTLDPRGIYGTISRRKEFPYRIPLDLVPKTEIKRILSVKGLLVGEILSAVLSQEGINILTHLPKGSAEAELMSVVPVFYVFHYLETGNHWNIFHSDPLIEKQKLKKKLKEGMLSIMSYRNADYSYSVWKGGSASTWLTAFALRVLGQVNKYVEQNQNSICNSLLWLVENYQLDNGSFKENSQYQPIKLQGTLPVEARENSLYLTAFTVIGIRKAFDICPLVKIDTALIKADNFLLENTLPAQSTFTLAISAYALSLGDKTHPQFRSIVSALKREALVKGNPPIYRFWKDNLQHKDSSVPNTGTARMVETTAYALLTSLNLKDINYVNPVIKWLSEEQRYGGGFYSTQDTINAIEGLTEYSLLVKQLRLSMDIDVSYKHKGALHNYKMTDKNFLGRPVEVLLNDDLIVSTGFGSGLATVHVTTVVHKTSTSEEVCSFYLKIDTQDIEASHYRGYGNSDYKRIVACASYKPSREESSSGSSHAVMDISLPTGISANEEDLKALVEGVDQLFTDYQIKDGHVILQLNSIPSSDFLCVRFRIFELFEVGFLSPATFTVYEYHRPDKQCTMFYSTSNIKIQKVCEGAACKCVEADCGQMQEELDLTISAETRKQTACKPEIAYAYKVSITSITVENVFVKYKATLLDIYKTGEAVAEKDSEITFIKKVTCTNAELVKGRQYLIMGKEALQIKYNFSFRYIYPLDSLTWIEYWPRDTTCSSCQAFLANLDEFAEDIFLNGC
T1 sequence (P00746 whole entry): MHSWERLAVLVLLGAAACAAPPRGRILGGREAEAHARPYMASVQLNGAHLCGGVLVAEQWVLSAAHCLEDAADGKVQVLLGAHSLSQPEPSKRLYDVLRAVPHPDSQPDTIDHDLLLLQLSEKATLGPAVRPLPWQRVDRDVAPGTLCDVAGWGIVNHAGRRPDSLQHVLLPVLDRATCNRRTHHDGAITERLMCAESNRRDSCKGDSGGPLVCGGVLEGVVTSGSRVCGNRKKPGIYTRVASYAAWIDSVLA

- solubility thermodynamic at 16 h [1]: < 4 µM
- IC50 (Complement C5): 210 nM
SMILES: CCCCCCOc1cc(NC(=O)N[C@@H](C)c2ccccc2)ccc1OC

- solubility thermodynamic at 16 h [1]: < 4 µM
- IC50 (Complement C5): 440 nM
SMILES: COc1ccc(NC(=O)N[C@@H](C)c2ccccc2)cc1OCCCC(C)C

SMILES: CC(N)c1ccc(C(=O)Nc2ccnc3[nH]ccc23)cc1 (configuration not stated)
- Activity [2]: 3 mmHg

SMILES: C[C@H]1CNCCCN1S(=O)(=O)c1cccc2cncc(F)c12
- Activity [3]: -3.2 mmHg
- Activity [4]: 1.6 mmHg
- Activity [5]: 1.4 mmHg
- Activity [6]: 0.9 mmHg
- Activity [7]: -3.7 mmHg
- Activity [8]: -2.7 mmHg
- Activity [9]: -2.6 mmHg
- Activity [10]: -3.1 mmHg

- IC50 (Complement factor D [11]): 50 nM
SMILES: NC(=O)c1nn(CC(=O)N2[C@@H]3C[C@@H]3C[C@H]2C(=O)Nc2cccc(Br)n2)c2ncccc12

- solubility [12]: 2000 µM (≈ 621 µg/mL)
SMILES: NC(=O)c1cc2cc(OCc3cccc(C(=O)O)c3)ccc2[nH]1

- IC50 [13]: 9000 nM
SMILES: COC(=O)c1ccccc1CNC(=O)N1CCC[C@H]1C(=O)Nc1cccc(OC(F)(F)F)c1

- Kd (Complement factor D [14]): > 30000 nM
- solubility [12]: 30 µM (≈ 7.99 µg/mL)
SMILES: NC(=O)c1cc2cc(OCc3ccccc3)ccc2[nH]1

- t1/2 [15]: 1.82 h
- t1/2 [16]: 2.92 h
- t1/2 [17]: 2.33 h
- t1/2 [18]: 2.6 h
- t1/2 [19]: 1.63 h
SMILES: Cc1ccc(C(=O)OCc2ccc([C@@H](CN)C(=O)Nc3ccc4cnccc4c3)cc2)c(C)c1

- IC50 (Complement factor D [20]): > 30000 nM
- IC50 [13]: 700 nM
SMILES: COc1ccc(CCNC(=O)[C@@H]2CCCN2C(=O)NCc2cccc3ccccc23)cc1

- IC50 (Complement factor D [11]): 140 nM
- IC50 (Complement factor D [21]): 70 nM
SMILES: C[C@H](NC(=O)[C@@H]1C[C@H]2C[C@H]2N1C(=O)Cn1nc(C(N)=O)c2cccnc21)c1cccc(Cl)c1F

- solubility thermodynamic at 16 h [1]: 728 µM (≈ 302 µg/mL)
- IC50 (Complement C5): 620 nM
SMILES: COc1cc(C(=O)O)c(NC(=O)N[C@@H](C)c2ccccc2)cc1OCCCC(C)C

- IC50 [22]: 55000 nM
SMILES: O=C(CCC/C=C\C[C@@H]1[C@@H](CC[C@@H](O)CCc2ccccc2)[C@H](O)C[C@@H]1O)OC(CO[N+](=O)[O-])CO[N+](=O)[O-]

- solubility thermodynamic at 16 h [1]: ≤ 4 µM
- IC50 (Complement C5): ≤ 5 nM
SMILES: COc1ccc(NC(=O)N[C@@H](C)c2ccccc2OC)cc1OCCCC(C)C

SMILES: O=C(CCC/C=C\C[C@@H]1[C@@H](CC[C@H](O)CCc2ccccc2)[C@H](O)C[C@@H]1O)OCCCCO[N+](=O)[O-]
- Activity [23]: 2.3 mmHg
- Activity [24]: 3.6 mmHg
- Activity [25]: 1.3 mmHg
- Activity [26]: 0.8 mmHg
- Activity [27]: 0.9 mmHg
- Activity [28]: 1.3 mmHg
- Activity [29]: 0.9 mmHg
- Activity [30]: 0.7 mmHg
- Activity [31]: 9 mmHg
- Activity [32]: 0.8 mmHg
- Activity [33]: 8.3 mmHg
- Activity [34]: 1.1 mmHg
- Activity [35]: 3.5 mmHg
- Activity [36]: 8.9 mmHg
- Activity [37]: 4.3 mmHg
- Activity [38]: 0.4 mmHg
- Activity [39]: 1 mmHg
- Activity [40]: 5.3 mmHg

SMILES: OCCc1ccc(O)c(O)c1 [HYDROXYTYROSOL]
- Activity (Rattus norvegicus [41]): 9%
- Activity (Rattus norvegicus [42]): 34%
